According to patent US9255122B2, “Cholate and deoxycholate-based amphiphiles for membrane protein manipulation” (Wisconsin Alumni Research Foundation, priority 2013, dated 2016):

Key:
LHI-RC complex [1] = test system: T1, LHI-RC complex; assay: Solubilization of LHI-RC complex from R. capsulatus intracytoplasmic membranes (pellet/supernatant absorbance spectra); parameters: species or system Rhodobacter capsulatus; settings: for SY (%) Solubilization yield of LHI-RC complex from the membrane: 2×CMC for DPA-2, CAO, CAO-1, 10×CMC for other new agents, 50×CMC for DDM and LDAO, 32° C., 30 min
T1 construct: made in house; host or cells: Rhodobacter capsulatus U43[pUHTM86Bgl], intracytoplasmic membranes
T1 sequence (P11847 whole entry): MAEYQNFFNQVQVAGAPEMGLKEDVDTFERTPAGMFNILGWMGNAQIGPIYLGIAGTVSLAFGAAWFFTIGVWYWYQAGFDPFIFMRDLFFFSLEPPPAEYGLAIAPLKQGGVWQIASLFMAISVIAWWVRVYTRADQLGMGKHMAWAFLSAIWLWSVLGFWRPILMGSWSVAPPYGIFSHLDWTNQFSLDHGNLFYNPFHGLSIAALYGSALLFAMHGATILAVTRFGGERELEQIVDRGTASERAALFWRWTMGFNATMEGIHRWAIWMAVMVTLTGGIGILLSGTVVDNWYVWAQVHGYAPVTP
T1 sequence (P19057 whole entry, further chain): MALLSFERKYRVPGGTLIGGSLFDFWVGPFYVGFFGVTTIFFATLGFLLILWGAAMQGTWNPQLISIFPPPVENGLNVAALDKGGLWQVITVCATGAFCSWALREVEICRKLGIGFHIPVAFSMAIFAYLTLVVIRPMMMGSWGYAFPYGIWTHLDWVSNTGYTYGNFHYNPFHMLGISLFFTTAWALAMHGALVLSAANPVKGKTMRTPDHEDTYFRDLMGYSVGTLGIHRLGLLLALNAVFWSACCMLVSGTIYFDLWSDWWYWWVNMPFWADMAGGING
T1 sequence (P19056 whole entry, further chain): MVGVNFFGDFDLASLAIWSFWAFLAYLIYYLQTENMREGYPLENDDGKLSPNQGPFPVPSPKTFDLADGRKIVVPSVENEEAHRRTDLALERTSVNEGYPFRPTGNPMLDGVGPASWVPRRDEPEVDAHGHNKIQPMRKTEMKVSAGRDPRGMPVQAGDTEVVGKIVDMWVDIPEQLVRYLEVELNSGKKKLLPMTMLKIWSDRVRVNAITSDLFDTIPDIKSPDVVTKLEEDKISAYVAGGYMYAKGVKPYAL
T1 sequence (P02948 whole entry, further chain): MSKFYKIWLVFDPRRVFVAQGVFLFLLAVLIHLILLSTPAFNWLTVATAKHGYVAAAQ
T1 sequence (P02950 whole entry, further chain): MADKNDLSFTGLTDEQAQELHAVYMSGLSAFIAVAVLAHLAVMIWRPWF
Procedure: (§1) These two reagents were chosen as control agents for the assay. For the superassembly solubilization, the intracytoplasmic R. capsulatus membranes enriched in LHI-RC complex were treated with 10×CMC individual new agents except DPA-2; DPA-2 was tested at 2×CMC based on its high CMC value. On the other hand, conventional detergents (LDAO and DDM) were used at 50×CMC due to the small CMC value in terms of wt. %. The solubilized protein portion and insolubilized part containing cellular debris and insolubilized membranes were separated via ultracentrifugation and isolated as the supernatant and pellet, respectively. The absorption spectra of these two portions were taken to assess detergents efficacy on the protein solubilization and stabilization.
(§2) The solubilization and purification of the R. capsulatus superassembly were conducted according to the published protocol (Chae et al., ChemBioChem 2008, 9, 1706-1709). First, specialized photosynthetic membranes called intracytoplasmic membranes were obtained from an engineered strain of Rhodobacter (R.) capsulatus, U43[pUHTM86Bgl], lacking the light-harvesting complex II (LHII). The solubilization experiment began by thawing and homogenizing frozen aliquots of R. capsulatus membranes at room temperature. The solution was then incubated with mild agitation at 32° C. for 30 min. Subsequently, the solution was further incubated for 30 min after adding individual detergents (2×CMC for DPA-2, CAO and CAO-1, 10×CMC for DPA-1, […], DCAO and DCAO-2, 50×CMC for DDM and LDAO) into 1.0 mL solutions of R. capsulatus superassembly. The solution was then subjected to ultracentrifugation at 310,000 g at 4° C. for 30 min to remove membrane debris.
(§3) The spectra of solubilized supernatant and solubilized pellet were taken in a range from 650 nm to 950 nm after being homogenized. For the purification of the protein, detergent-solubilized samples were transferred into a new 1.7 mL microcentrifuge tube containing Ni-NTA resin (Qiagen, Inc.; Valencia, Calif.; pre-equilibriated and stored in an equal volume of buffer containing 10 mM Tris, pH 7.8, and 100 mM NaCl). Following one-hour incubation at 4° C. for protein binding, the resins were collected and washed twice with 0.5 mL of binding buffer (a pH 7.8 Tris solution containing DDM at 1×CMC). Purified protein solution were collected by eluting three times with 0.20 mL elution buffer solutions containing 1 M imidazole (otherwise, this buffer was identical to binding buffer; the pH of each solution was readjusted to pH=7.8) and diluted with 0.4 mL of the binding buffer to reach 1.0 mL solution. UV-Vis spectra of the superassembly purified in individual detergents were then taken to assess the stability of the protein.

LHI-RC complex [2] = test system: T1, LHI-RC complex; assay: Integrity of detergent-solubilized and Ni-NTA-purified LHI-RC complexes by UV-Vis absorption spectra; parameters: species or system Rhodobacter capsulatus; settings: purified protein eluted at 1×CMC detergent
Source text: The presence of various types of cofactors such as bacteriochlorophyll and carotenoids embedded in the complexes, thereby providing a well-featured UV-Vis absorption spectrum, facilitates the assessment of the protein integrity for a set of detergents via optical spectrophotometry. The native conformation of the protein is represented by a very strong peak at 875 nm in its absorption spectrum, while the intact RC but denatured LHI, or denatured LHI and RC, produce rather intense peaks at ˜800 nm and ˜760 nm, respectively.
as §1
For the purification, the detergent-solubilized protein samples were subjected to a metal affinity column chromatography and eluted with the elution buffer containing 1M imidazole and 1×CMC individual detergents. The UV-Visible spectra of the resulting protein samples were taken to investigate the integrity of detergent-purified LHI-RC complexes.
as §2, §3

LHI-RC complex [3] = test system: T1, LHI-RC complex; assay: Long-term stability of LHI-RC complexes, absorbance ratio A875/A680 over 20-day incubation at room temperature; parameters: species or system Rhodobacter capsulatus; settings: for long-term stability of superassembly (A875/A680), in words: room temperature; for native conformation retained by detergent-purified proteins: after 20 day-incubation at room temperature
Procedure: The favorable properties of CAO and DCAO in terms of membrane protein stabilization prompted further evaluation of these reagents' ability to stabilize protein superassemblies as a function of time. DDM-purified samples were diluted with solutions containing CAO or LDAO. […] Protein stability was monitored over time at room temperature by measuring absorbance ratios (A875/A680) (absorption at 680 nm arises from the oxidation of bacteriochlorophyll dissociated from LHI upon denaturation). […] Of note, DCAO was not evaluated in this long-term stability of the superassembly due to its high tendency to form a hydrogel at this high concentration.
R. capsulatus superassembly was purified in DDM according to the protocol described above. The DDM-purified sample was then diluted to the solutions containing individual detergents (CAO, CAO-1, DCAO, DCAO-2, DDM and LDAO). The dilution makes DDM concentration reached far below its CMC and the final individual detergent concentration at CMC+0.04 wt % or CMC+1.0 wt %. The spectra of individual detergents-solubilized LHI-RC complexes were taken in a range of 650 nm to 950 nm at regular intervals over 20 days during the incubation at room temperature. Protein integrity in each sample was assessed via changes in absorbance ratio (A875/A680) with time.
Similar criteria and protocols were used to judge the ability of amphiphiles to maintain solubilized and purified superassembly for extended periods. In this case, UV Vis-nearIR spectra were recorded at regular intervals. The degradation of the material could be monitored with the A875/A680 absorbance ratio, which decreased with time and sample integrity as the dominant 875 nm absorption of intact LHI disappeared and a 680 nm band appeared, indicating the presence of unbound, oxidized cofactors.

[4] = Water solubility and hydrogel formation of amphiphiles; type: physicochemical
Procedure: The amphiphiles prepared, except LDAO and DCAO, are water-soluble at up to 10 wt. %. […] DCAO was initially soluble, at approximately 1.0 wt. %, but tends to form a hydrogel over time at concentrations of greater than about 0.3 wt. %. Critical micelle concentration (CMC) values were estimated by using a hydrophobic fluorescent dye, diphenyhexatriene (DPH) (see Laible et al., Biochemistry 2003, 42, 1718-1730).
The CMC values were determined for CAO-1 (˜7.2 mM; ˜0.38 wt. %) and DCAO-2 (˜1.1 mM; ˜0.056 wt. %), which are similar to those of their parent compounds, CAO and DCAO, respectively (see Table 2.1 above). […] All of these cholate and deoxycholate-based agents preserved the native conformation of the superassembly during protein solubilization and purification processes.

[5] = Critical micelle concentration (CMC) estimated with hydrophobic fluorescent dye diphenylhexatriene (DPH); type: physicochemical
Source text: The “Critical Micelle Concentration” (CMC) refers to the concentration of a detergent (e.g., an amphiphile as described herein) in an aqueous solution at which the detergent molecules self-assemble into micelles. Below the CMC, detergents are mostly monomeric; above the CMC, micelle concentration increases linearly with detergent concentration. The CMC is dependent upon many factors and is detergent-specific. The CMC of a detergent can be determined experimentally by measuring the solubilization of a water-insoluble dye or fluorophore while varying the concentration of detergent. A CMC may also be determined by measuring the diminution of the surface tension of an aqueous solution as a function of detergent concentration (CMCs determined by either method correlate with each other). The CMC is determined by extrapolating the plot of solubilization vs. concentration (or surface tension vs. concentration) in the two linear regions above and below the CMC. Where the two lines intersect is the CMC.
The Critical Micelle Concentrations (CMCs) of compounds of the invention can be determined by standard techniques known to those of skill in the art. For example, CMCs of CAO and DCAO can be determined by monitoring uptake of a fluorescent dye (e.g., a dye such as 1,6-diphenylhexatriene) with increasing detergent concentration, monitored by fluorescence spectroscopy.

[6] = estimated with DPH, Example 2, Table 2.1
[7] = at CMC+0.04 wt. % and CMC+1.0 wt. %, 20 days

Compound | SY (%) Solubilization yield of LHI-RC complex from the membrane (LHI-RC complex [1]) | native structure of LHI-RC complexes after solubilization and purification (in words) (LHI-RC complex [2]) | CMC ([5]; Example 3, Table 3-2) | CMC (%) ([5]; Example 3, Table 3-2) | CMC [5, 6] | CMC (wt. %) [5, 6] | further results
CC(CCC(=O)NCCC[N+](C)(C)[O-])C1CCC2C3CCC4CC(O)CCC4(C)C3CC(O)C12C (stereo not drawn) [DCAO] | ~70% | fully retained as effectively as DDM | 1.0 mM | 0.049% | ~1.3 mM | ~0.064 wt. % | long-term stability of superassembly (A875/A680), in words (LHI-RC complex [3]; detergent at CMC+0.04 wt. %): more stable than DDM-solubilized protein; hydrogel formation (in words) [4]: did not form a hydrogel; concentration at which a hydrogel tends to form over time ([4]; in water): greater than 0.3 wt. %; water solubility ([4]; water-soluble at up to the stated concentration): approximately 1.0 wt. %; CMC fold lower than that of CHAPS or CHAPSO [5]: approximately 8 fold
C[N+](C)([O-])CCCNC(=O)CC(c1ccccc1)c1ccccc1 [DPA-2, reference compound] | ~15% |  |  |  | ~78 mM | ~2.5 wt. % | 
CCCCCCCCCCCC[N+](C)(C)[O-] [LDAO, lauryldimethylamine oxide, reference compound] | ~100% | native protein conformation mostly destroyed |  |  | ~1.0 mM | ~0.023 wt. % | extraction/solubilization of LHI-RC complexes (in words) (LHI-RC complex [1]): extracted the complexes almost quantitatively; water solubility (in words) [4]: insoluble in water
C[C@H](CCC(=O)NCCC[N+](C)(C)CC(O)CS(=O)(=O)[O-])[C@H]1CC[C@H]2[C@@H]3[C@H](O)C[C@@H]4C[C@H](O)CC[C@]4(C)[C@H]3C[C@H](O)[C@]12C (stereo partly drawn) [CHAPSO, 3-[(3-cholamidopropyl)-dimethylammonio]-2-hydroxy-1-propanesulfonate, reference compound] | ~50% |  | 8 mM | 0.5% |  |  | native conformation retained by detergent-purified proteins (LHI-RC complex [3]): ~65%
C[N+](C)([O-])CCCNC(=O)CC(C1CCCCC1)C1CCCCC1 [DPA-3, reference compound] | ~95% | protein degradation observed for DPA-3 was much less than that observed for DPA-1 |  |  | ~4.9 mM | ~0.17 wt. % | 
C[N+](C)([O-])CCCNC(=O)CC1(C2CCCC2)CCCCCC1 [DPA-1, 3-(2-(1-cyclopentylcycloheptyl)acetamido)-N,N-dimethylpropan-1-amine oxide] | ~100% | A similar trend was observed |  |  | ~13 mM | ~0.24 wt. % | 
CCCCCCCCCCCCO[C@@H]1O[C@H](CO)[C@@H](O[C@H]2O[C@H](CO)[C@@H](O)[C@H](O)[C@H]2O)[C@H](O)[C@H]1O [DDM, n-dodecyl-β-D-maltoside, reference compound] | ~70% |  |  |  | ~0.17 mM | ~0.0087 wt. % | 
CC(CCC(=O)NCCC[N+](C)(C)[O-])C1CCC2C3C(O)CC4CC(O)CCC4(C)C3CC(O)C12C (stereo not drawn) [CAO] | ~30% | fully retained as effectively as DDM | 7.1 mM | 0.36% | ~8.3 mM | ~0.42 wt. % | long-term stability of superassembly (A875/A680), in words (LHI-RC complex [3]; [7]): clearly superior to DDM; long-term stability of superassembly (A875/A680), in words (LHI-RC complex [3]; detergent at CMC+0.04 wt. %): more stable than DDM-solubilized protein; long-term stability of superassembly (A875/A680), in words (LHI-RC complex [3]; detergent at CMC+1.0 wt. %): efficacy difference between CAO and DDM was more prominent
C[C@H](CCC(=O)NCCC[N+](C)(C)CCCS(=O)(=O)[O-])[C@H]1CC[C@H]2[C@@H]3[C@H](O)C[C@@H]4C[C@H](O)CC[C@]4(C)[C@H]3C[C@H](O)[C@]12C [CHAPS, 3-[(3-cholamidopropyl)-dimethylammonio]-1-propanesulfonate, reference compound] | ~50% | without structural degradation | 8 mM | 0.49% | ~8.0 mM |  | native conformation retained by detergent-purified proteins (LHI-RC complex [3]): ~65%
CC(CCC(=O)N(C)CCC[N+](C)(C)[O-])C1CCC2C3C(O)CC4CC(O)CCC4(C)C3CC(O)C12C (stereo not drawn) [CAO-1] | ~20% |  |  |  | ~7.2 mM | ~0.36 wt. % | long-term stability of superassembly (A875/A680), in words (LHI-RC complex [3]; [7]): clearly superior to DDM
